Laboratory results from patent US20240409530A1, “Disubstituted Pyrimidine Compounds for Ketohexokinase Inhibition” (Centennial Therapeutics, LLC, priority 2023, published 2024).

Experiments:
Human recombinant KHK-A = Human recombinant KHK-A (Homo sapiens (Human), UniProt P50053); test: KHK inhibition assay, recombinant isozyme (coupled pyruvate kinase/LDH, NADH absorbance 340 nm); format: biochemical; settings: recombinant isozyme 6 nM, fructose 2 mM, ATP 0.1 mM
Protocol: (§1) Determination of Human and Rat recombinant KHK-A and KHK-C isozyme IC50 Values
(§2) An assay reagent cocktail was prepared by combining NADH, water, TEA, KCl, MgCl2, PEP, ATP, DTT, coupling enzymes (pyruvate kinase and lactate dehydrogenase, LDH) to final concentrations as shown in Table B.
(§3) To this was added the relevant KHK isozyme to a final concentration of 6 nM. Aliquots of each inhibitor compound were diluted via 5-fold serial dilutions to produce final concentrations ranging from 1000 nM to 0.064 nM. The inhibitor aliquots were added to the assay reagent cocktail containing KHK with fructose (at a concentration of 2 mM) in a 96-well plate. The absorbance at 340 nm was measured via spectrophotometry and inhibition was analyzed using non-linear regression.

Human recombinant KHK-C = Human recombinant KHK-C (Homo sapiens (Human), UniProt P50053); test: as above; format: biochemical; settings: recombinant isozyme 6 nM, fructose 2 mM, ATP 0.1 mM
Chain of Human recombinant KHK-C (P50053 whole entry): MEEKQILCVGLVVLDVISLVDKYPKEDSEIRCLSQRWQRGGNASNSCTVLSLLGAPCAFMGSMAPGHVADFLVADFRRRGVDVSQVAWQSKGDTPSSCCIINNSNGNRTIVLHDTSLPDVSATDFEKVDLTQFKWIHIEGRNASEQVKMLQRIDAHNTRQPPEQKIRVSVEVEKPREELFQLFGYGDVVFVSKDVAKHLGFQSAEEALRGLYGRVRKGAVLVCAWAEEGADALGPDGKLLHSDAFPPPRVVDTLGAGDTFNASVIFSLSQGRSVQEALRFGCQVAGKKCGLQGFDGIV
Protocol: as §1, §2, §3

Rat recombinant KHK-A = Rat recombinant KHK-A (Rattus norvegicus (Rat), UniProt Q02974); test: as above; format: biochemical; settings: recombinant isozyme 6 nM, fructose 2 mM, ATP 0.1 mM
Chain of Rat recombinant KHK-A (Q02974 other isoform, or with tags, fused parts or gaps): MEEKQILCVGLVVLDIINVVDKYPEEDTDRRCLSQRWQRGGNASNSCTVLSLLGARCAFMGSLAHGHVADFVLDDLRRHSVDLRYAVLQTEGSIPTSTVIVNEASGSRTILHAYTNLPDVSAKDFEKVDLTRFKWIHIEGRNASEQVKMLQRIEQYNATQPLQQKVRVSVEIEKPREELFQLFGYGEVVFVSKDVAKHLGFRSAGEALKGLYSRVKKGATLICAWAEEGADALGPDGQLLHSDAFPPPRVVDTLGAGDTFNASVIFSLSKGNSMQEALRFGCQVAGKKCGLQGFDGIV
Protocol: as §1, §2, §3

Rat recombinant KHK-C = Rat recombinant KHK-C (Rattus norvegicus (Rat), UniProt Q02974); test: as above; format: biochemical; settings: recombinant isozyme 6 nM, fructose 2 mM, ATP 0.1 mM
Chain of Rat recombinant KHK-C (Q02974 whole entry): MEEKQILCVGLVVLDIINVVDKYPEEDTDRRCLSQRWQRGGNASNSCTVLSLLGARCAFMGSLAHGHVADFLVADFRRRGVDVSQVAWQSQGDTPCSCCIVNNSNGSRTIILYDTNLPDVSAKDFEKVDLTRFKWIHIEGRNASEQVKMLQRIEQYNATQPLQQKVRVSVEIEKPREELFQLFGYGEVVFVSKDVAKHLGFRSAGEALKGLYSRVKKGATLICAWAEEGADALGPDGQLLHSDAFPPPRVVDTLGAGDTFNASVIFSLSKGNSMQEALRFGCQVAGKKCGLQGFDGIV
Protocol: as §1, §2, §3

human KHK in HepG2 Cells = human KHK in HepG2 Cells (Homo sapiens (Human), UniProt P50053); test: Cell-based potency assay (HepG2 assay), F1P by LC/MS; settings: fructose 20 mM, 20 min, F1P produced
Chain of human KHK in HepG2 Cells (P50053 whole entry): as the sequence (P50053 whole entry) above
Protocol: Testing inhibition effect of compounds against human KHK in HepG2 Cells
(§4) HepG2 cells were grown in RPMI1640 supplemented media on 100 mm plates to near confluency (about 5-8×10^6 cells). The growth media was aspirated and 4 mL trypsin solution (0.25% (w/v)+0.25% (w/v) EDTA) was added, followed by incubation at 37° C. for 5-10 mins. The cells were pelleted and resuspended in 2 mL complete media.
The cells were then placed in a 96 well plate at 20,000-50,000 cells per well and grown for 20-28 hours at 37° C. to allow adherence.
Inhibitor compounds were diluted in DMSO to 50 μM, then serially diluted with MEM media (ThermoFisher). Final inhibitor concentration ranged from 1000 nM to 0.064 nM (5-fold dilution series).
The RPMI medium was removed from the plate of confluent cells. The plate was then incubated for 35 min at 37°, after which were added 0.1 mL of the diluted inhibitor compounds in MEM with fructose, 0.1 mL of MEM media without inhibitor compound or fructose, or trypsin; yielding a final concentration of fructose at 20 mM. The plate was subsequently incubated for 20 min at 37°, then placed on ice to stop the reactions.
Next, 200 μL of cold 80% (v/v) methanol:water was added to all wells, except the controls used to enumerate cell count. The plate was vortexed and cell debris removed by centrifugation. To measure F1P produced, the resulting supernatant fraction was analyzed by LC/MS.

[1] = biological target: human KHK-C in engineered HepG2 cells (Homo sapiens (Human), UniProt P50053); test: Cell-based potency assay (KHK-C-overexpressing HepG2 assay), F1P by LC/MS; settings: fructose 30 mM, 5 min, F1P produced, geomean
Chain of human KHK-C in engineered HepG2 cells (P50053 whole entry, stated change not applied): as the sequence (P50053 whole entry) above
Protocol: Testing inhibition effect of compounds against human KHK-C in engineered HepG2 cells.
Engineered HepG2 cells were generated using methods known to those of skill in the art. Briefly, HepG2 cells were incubated with lentivirus carrying a transgene encoding human KHK-C, and grown under antibiotic selection.
as §4, with “KHK-C-overexpressing HepG2” for “HepG2”, “T-182 cm^2 flask” for “100 mm plates”, “25-40×10^6” for “5-8×10^6”, “aspirated, the flask was washed with 10 mL PBS,” for “aspirated”, “3-5” for “5-10”
The cells were then placed in a 96-well plate at 20,000-40,000 cells per well and grown for 20-28 hours at 37° C. to allow adherence.
Inhibitor compounds were diluted in DMSO to 50 μM, then serially diluted with MEM media (ThermoFisher). Final inhibitor concentration ranged from 5000 nM to 0.32 nM.
The RPMI medium was removed from the plate of confluent cells. The plate was then incubated for 35 min at 37° C. with 0.1 mL of the diluted inhibitor compounds in MEM. After, an additional 0.1 mL of the diluted inhibitor compounds in MEM with fructose, or 0.1 mL of MEM media without inhibitor compound and/or fructose; yielding a final concentration of fructose at 30 mM was added. The plate was subsequently incubated for 5 min at 37° C., then placed on ice to stop the reactions.
Next 200 μL of cold 80% (v/v) methanol:water was added to al wells and placed in the −80° C. freezer for 1 hour with an adhesive seal. The plate was vortexed and cell debris removed by centrifugation. To measure F1P produced, the resulting supernatant fraction was analyzed by LC/MS.

Chain of Human recombinant KHK-A (P50053 other isoform, or with tags, fused parts or gaps): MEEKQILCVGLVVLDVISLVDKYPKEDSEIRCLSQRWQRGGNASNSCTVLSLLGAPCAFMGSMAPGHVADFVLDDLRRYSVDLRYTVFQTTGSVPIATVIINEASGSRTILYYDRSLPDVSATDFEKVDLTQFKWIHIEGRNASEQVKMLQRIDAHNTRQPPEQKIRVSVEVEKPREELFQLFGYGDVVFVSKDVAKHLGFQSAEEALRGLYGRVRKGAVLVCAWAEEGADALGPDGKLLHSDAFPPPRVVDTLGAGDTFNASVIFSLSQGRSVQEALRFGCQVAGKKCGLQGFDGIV

Row | Compound | IC50 (Human recombinant KHK-A) | IC50 (Human recombinant KHK-C) | IC50 (Rat recombinant KHK-A) | IC50 (Rat recombinant KHK-C) | IC50 (human KHK in HepG2 Cells) | IC50 [1]
1 | Cc1c(-c2cnn(CC(=O)N3CCNCC3)c2)nc(N2CC[C@@H]2C(F)(F)F)nc1C(F)(F)F [Compound A1, 2-(4-{2-[(R)-2-(trifluoromethyl)-1-azetidinyl]-5-methyl-6-(trifluoromethyl)-4-pyrimidinyl}-1-pyrazolyl)-1-(1-piperazinyl)-1-ethanone] | 6 nM | 4.06 nM | 2.2 nM | 9 nM | 7 nM | 
2 | O=C(Cn1cc(-c2cc(C(F)(F)F)nc(N3CC[C@@H]3C(F)(F)F)n2)cn1)N1CCNCC1 [Compound A2, 2-(4-{2-[(R)-2-(trifluoromethyl)-1-azetidinyl]-6-(trifluoromethyl)-4-pyrimidinyl}-1-pyrazolyl)-1-(1-piperazinyl)-1-ethanone] | 13.5 nM | 31 nM | 9 nM | 26 nM | 48 nM | 
3 | Cc1c(-c2cnn(CC(=O)N3CCNCC3)c2)nc(N2CC[C@@H]2C)nc1C(F)(F)F [Compound A3, 2-(4-{2-[(S)-2-methyl-1-azetidinyl]-5-methyl-6-(trifluoromethyl)-4-pyrimidinyl}-1-pyrazolyl)-1-(1-piperazinyl)-1-ethanone] | 4.6 nM | 7.48 nM | 2.9 nM | 8.3 nM | 25 nM | 186 nM
4 | CCc1c(-c2cnn(CC(=O)N3CCNCC3)c2)nc(N2CC[C@@H]2C)nc1C(F)(F)F [Compound A6, 2-(4-{2-[(S)-2-methyl-1-azetidinyl]-5-ethyl-6-(trifluoromethyl)-4-pyrimidinyl}-1-pyrazolyl)-1-(1-piperazinyl)-1-ethanone] | 8.8 nM | 15.7 nM | 2.3 nM | 11 nM | 70 nM | 
5 | C[C@H]1CCN1c1nc(-c2cnn(CC(=O)N3CCNCC3)c2)cc(C(F)F)n1 [Compound A7, 2-(4-{2-[(S)-2-methyl-1-azetidinyl]-6-(difluoromethyl)-4-pyrimidinyl}-1-pyrazolyl)-1-(1-piperazinyl)-1-ethanone] | 160 nM | 231 nM | 46 nM | 120 nM | 332 nM | 
6 | C[C@H]1[C@H](O)CN1c1nc(-c2cnn(C3CN(C)C3)c2)cc(C(F)F)n1 [Compound A9, (2S,3R)-1-{6-(difluoromethyl)-4-[1-(1-methyl-3-azetidinyl)-4-pyrazolyl]-2-pyrimidinyl}-2-methyl-3-azetidinol] | 22 nM | 40.5 nM | 10 nM | 37 nM |  | 184 nM
7 | CCc1c(-c2cnn(C3CN(C)C3)c2)nc(N2C[C@@H](O)[C@@H]2C)nc1C(F)(F)F [Compound A11, (2S,3R)-1-{5-ethyl-4-[1-(1-methyl-3-azetidinyl)-4-pyrazolyl]-6-(trifluoromethyl)-2-pyrimidinyl}-2-methyl-3-azetidinol] | 8.5 nM | 2.09 nM | 0.96 nM | 2.1 nM | 4 nM | 
8 | Cc1c(-c2cnn(CC(=O)N3CCNCC3)c2)nc(N2CC[C@@H]2C(F)(F)F)nc1C(F)F [Compound A18, 2-(4-{2-[(R)-2-(trifluoromethyl)-1-azetidinyl]-6-(difluoromethyl)-5-methyl-4-pyrimidinyl}-1-pyrazolyl)-1-(1-piperazinyl)-1-ethanone] | 5.3 nM | 7.42 nM | 4.1 nM | 9.5 nM | 11 nM | 
9 | COc1c(-c2cnn(C3CN(C)C3)c2)nc(N2C[C@@H](O)[C@@H]2C)nc1C(F)F [Compound A19, (2S,3R)-1-{6-(difluoromethyl)-5-methoxy-4-[1-(1-methyl-3-azetidinyl)-4-pyrazolyl]-2-pyrimidinyl}-2-methyl-3-azetidinol] | 27 nM | 10.6 nM | 6.6 nM | 17 nM | 23 nM | 
10 | Cc1c(-c2cnn(CC(=O)N3CCNCC3)c2)nc(N2CC[C@@H]2C)nc1C(F)F [Compound A24, 2-(4-{2-[(S)-2-methyl-1-azetidinyl]-6-(difluoromethyl)-5-methyl-4-pyrimidinyl}-1-pyrazolyl)-1-(1-piperazinyl)-1-ethanone] | 31 nM | 14.7 nM | 5.2 nM | 17 nM | 28 nM | 
11 | C[C@H]1[C@H](O)CN1c1nc(-c2cnn(C3CN(C)C3)c2)c(F)c(C(F)(F)F)n1 [Compound A27, (2S,3R)-1-{5-fluoro-4-[1-(1-methyl-3-azetidinyl)-4-pyrazolyl]-6-(trifluoromethyl)-2-pyrimidinyl}-2-methyl-3-azetidinol] |  | 4.09 nM |  |  | 9 nM | 
12 | O=C(Cn1cc(-c2cc(C(F)(F)F)nc(N3CC[C@@H]3C(F)F)n2)cn1)N1CCNCC1 [Compound A33, 2-(4-{2-[(R)-2-(difluoromethyl)-1-azetidinyl]-6-(trifluoromethyl)-4-pyrimidinyl}-1-pyrazolyl)-1-(1-piperazinyl)-1-ethanone] | 65 nM | 90.9 nM | 23 nM | 86 nM |  | 
13 | O=C(Cn1cc(-c2nc(N3CC[C@@H]3C(F)F)nc(C(F)(F)F)c2Cl)cn1)N1CCNCC1 [Compound A38, 2-(4-{2-[(R)-2-(difluoromethyl)-1-azetidinyl]-5-chloro-6-(trifluoromethyl)-4-pyrimidinyl}-1-pyrazolyl)-1-(1-piperazinyl)-1-ethanone] | 6.5 nM | 3.64 nM | 7.3 nM | 14 nM | 36 nM | 
14 | Cc1c(-c2cnn(CC(=O)N3CCNCC3)c2)nc(N2CC[C@@H]2C(F)F)nc1C(F)F [Compound A42, 2-(4-{2-[(R)-2-(difluoromethyl)-1-azetidinyl]-6-(difluoromethyl)-5-methyl-4-pyrimidinyl}-1-pyrazolyl)-1-(1-piperazinyl)-1-ethanone] | 13 nM | 18.3 nM | 10 nM | 26 nM | 43 nM | 
15 | Cc1c(-c2cnn(CC(=O)N3CCNCC3)c2)nc(N2CC[C@@H]2C(F)F)nc1C(F)(F)F [Compound A43, 2-(4-{2-[(R)-2-(difluoromethyl)-1-azetidinyl]-5-methyl-6-(trifluoromethyl)-4-pyrimidinyl}-1-pyrazolyl)-1-(1-piperazinyl)-1-ethanone] | 4.5 nM | 8.03 nM | 6.8 nM | 12 nM | 23 nM | 
16 | C[C@H]1CCN1c1nc(-c2cnn(CC(=O)N3CCNCC3)c2)cc(C(F)(F)F)n1 [Compound C2, reference compound] |  |  |  |  | 91 nM | 457 nM
17 | C[C@H]1[C@H](O)CN1c1nc(-c2cnn(C3CN(C)C3)c2)cc(C(F)(F)F)n1 [Compound C3, reference compound] |  |  |  |  | 4 nM | 191 nM
